How the values were obtained:
[1] = test system: human non-small cell lung cancer (Calu-6); assay: Example 4: administration timing of FK330 with paclitaxel in Calu-6 tumor-bearing mice; assay type: in vivo, nude mice; details: Day 55; for tumor volume at the end of the study: mean±SEM
Protocol: (§1) Preparation of the test substances and conditioning of the cells were carried out in the same manner as in Example 2.
(§2) Five-week old male nude mice (CAnN Cg-Foxn1nu/CrlCrlj(nu/nu)) were purchased from Charles River Laboratories Japan, Inc. (Japan, Kanagawa). The animals were raised under specific pathogen-free (SPF) conditions throughout the test period by feeding standard feedstuff and drinking water. The cultured cells were subcutaneously inoculated into the dorsal region of the nude mice at a concentration of 3×10^6 cells/0.1 mL/mouse. Nude mice which had the tumor volumes (major axis×[minor axis]^2×0.52) ranging from 142.1 mm^3 to 359.1 mm^3 were assigned by using SAS to minimize the fluctuation in the tumor volume between the groups and within the group.
The first day of administration was designated as Day 0, and observation was made until Day 55. The respective groups (n=5 or 6) were treated as follows. FK330 was orally gavaged in an amount of 5 mL/kg, and paclitaxel was administered intravenously through the tail vein in an amount of 10 mL/kg. Paclitaxel was continuously administered from Day 0 to Day 5, was subsequently withdrawn for 22 days, and then was continuously administered for 5 days from Day 28 to Day 32.
Paclitaxel single administration group: Paclitaxel 10 mg/kg/day (from Day 0 to Day 5, and from Day 28 to Day 32)
Concomitant administration, FK330 100 mg/kg bid (200 mg/kg/day)+paclitaxel 10 mg/kg/day (from Day 0 to Day 5, and from Day 28 to Day 32)
Sequential administration, FK330 100 mg/kg bid (200 mg/kg/day)+paclitaxel 10 mg/kg/day (from Day 0 to Day 5, and from Day 28 to Day 32)
Continuous administration, FK330 100 mg/kg bid (200 mg/kg/day)+paclitaxel 10 mg/kg/day (from Day 0 to Day 5, and from Day 28 to Day 32)
FK330 was orally gavaged (5 mL/kg) twice a day at an interval of 6 to 8 hours. In the Concomitant administration, FK330 was administered on the days of administration of paclitaxel (from Day 0 to Day 5, and from Day 28 to Day 32); and in the […] administration, FK330 was administered on the withdrawal days after the days of administration of paclitaxel (from Day 6 to Day 27, and from Day 33 to Day 55), while the continuous administration was carried out for all days from the day of experiment initiation to the day of experiment completion. Paclitaxel was administered by intravenous bolus injection (10 mL/kg) through the tail vein 2 to 4 hours after the administration of FK330.
Every 3 to 4 days, the body weight and the tumor diameters, determined by using a digital caliper, were measured. The tumor volume was calculated from the calculation formula for ellipsoid volume of (major axis×[minor axis]^2×0.52).

[2] = test system: human non-small cell lung cancer (Calu-6); assay: Example 3: dose dependency of FK330 in enhancing paclitaxel in Calu-6 tumor-bearing mice; assay type: in vivo, nude mice; details: Day 59; for tumor volume at the end of the study: mean±SEM
Protocol: as §1
as §2, with “123.3” for “142.1”, “274.4” for “359.1”
The first day of administration was designated as Day 0, and observation was made until Day 59. The respective groups (n=5) were treated as follows. FK330 was orally gavaged in an amount of 5 mL/kg, and paclitaxel was administered intravenously through the tail vein in an amount of 10 mL/kg. Paclitaxel was continuously administered from Day 0 to Day 5, and then was withdrawn for 21 days. This was defined as one cycle, and administration was carried out up to two cycles.
Paclitaxel single administration group: Paclitaxel 10 mg/kg/day (continuously administered for six days from Day 0 in Cycle 1, and continuously administered for 6 days from Day 27 in Cycle 2)
FK330 30 mg/kg bid (60 mg/kg/day)+paclitaxel 10 mg/kg/day (continuously administered for 6 days from Day 0 in Cycle 1, and continuously administered for 6 days from Day 27 in Cycle 2)
FK330 60 mg/kg bid (120 mg/kg/day)+paclitaxel 10 mg/kg/day (continuously administered for 6 days from Day 0 in Cycle 1, and continuously administered for 6 days from Day 27 in Cycle 2)
FK330 100 mg/kg bid (200 mg/kg/day)+paclitaxel 10 mg/kg/day (continuously administered for 6 days from Day 0 in Cycle 1, and continuously administered for 6 days from Day 27 in Cycle 2)
FK330 was orally gavaged (5 mL/kg) twice a day at an interval of 6 to 8 hours. Paclitaxel was administered by intravenous bolus injection (10 mL/kg) through the tail vein 2 to 4 hours after the administration of FK330.
Every 2 to 4 days, the body weight and the tumor diameters, determined by using a digital caliper, were measured. The tumor volume was calculated from the calculation formula for ellipsoid volume of (major axis×[minor axis]^2×0.52).

Row | SMILES | tumor volume reduction ratio compared with the paclitaxel-only group ([1]; concomitant administration of FK330 100 mg/kg bid + paclitaxel) | tumor volume at the end of the study ([1]; concomitant administration of paclitaxel and FK330 100 mg/kg bid (FK330 on paclitaxel days only)) | tumor volume at the end of the study ([1]; continuous administration of FK330 100 mg/kg bid (all days) + paclitaxel) | tumor volume reduction ratio compared with the paclitaxel-only group ([1]; continuous administration of FK330 100 mg/kg bid + paclitaxel) | tumor volume at the end of the study ([1]; sequential administration of FK330 100 mg/kg bid (on paclitaxel withdrawal days) + paclitaxel) | tumor volume reduction ratio compared with the paclitaxel-only group ([1]; sequential administration of FK330 100 mg/kg bid + paclitaxel) | tumor volume reduction ratio compared with the paclitaxel-only group ([2]; FK330 30 mg/kg bid + paclitaxel 10 mg/kg/day) | tumor volume at the end of the study ([2]; FK330 30 mg/kg bid combined use group with paclitaxel 10 mg/kg/day) | tumor volume reduction ratio compared with the paclitaxel-only group ([2]; FK330 60 mg/kg bid + paclitaxel 10 mg/kg/day) | tumor volume at the end of the study ([2]; FK330 60 mg/kg bid combined use group with paclitaxel 10 mg/kg/day) | tumor volume reduction ratio compared with the paclitaxel-only group ([2]; FK330 100 mg/kg bid + paclitaxel 10 mg/kg/day) | tumor volume at the end of the study ([2]; FK330 100 mg/kg bid combined use group with paclitaxel 10 mg/kg/day) | tumor volume at the end of the study ([1]; paclitaxel-only group, 10 mg/kg/day i.v. Day 0-5 and Day 28-32) | tumor volume at the end of the study ([2]; paclitaxel-only group, 10 mg/kg/day i.v., two cycles)
1 | O=C(/C=C/c1ccc(Cl)cc1)N[C@@H](Cc1ccccn1)C(=O)NCC(=O)N1CCC(Oc2cc(C(F)(F)F)ncn2)CC1 [FK330, N^2-[(2E)-3-(4-chlorophenyl)-2-propenoyl]-N-[2-oxo-2-(4-{[6-(trifluoromethyl)pyrimidin-4-yl]oxy}piperidin-1-yl)ethyl]-3-pyridin-2-yl-L-alaninamide] | 54.5% | 559.8±161.8 mm^3 | 168.5±66.0 mm^3 | 86.3% | 1150.9±264.9 mm^3 | 6.4% | 41.7% | 955.9±231.0 mm^3 | 56.9% | 706.2±256.1 mm^3 | 81.8% | 297.9±101.4 mm^3 | – | –
2 | CC(=O)O[C@H]1C(=O)[C@@]2(C)[C@H]([C@H](OC(=O)c3ccccc3)[C@]3(O)C[C@H](OC(=O)[C@H](O)[C@@H](NC(=O)c4ccccc4)c4ccccc4)C(C)=C1C3(C)C)[C@]1(OC(C)=O)CO[C@@H]1C[C@@H]2O [paclitaxel, reference compound] | – | – | – | – | – | – | – | – | – | – | – | – | 1229.2±289.6 mm^3 | 1640.1±902.8 mm^3
